Test results: paper PMC5056380, “Characterization of WY 14,643 and its Complex with Aldose Reductase” (Scientific Reports, 2016)
Read-outs that look alike come from different tables or passages of the source. One block for each compound: values may come before it.

What was measured:
[1] = target: T1, human Aldose reductase (hAR) (Homo sapiens, UniProt P15121); test: Fluorescence titration (quenching) of cofactor binding to hAR; details: for Kd: 0.5 μM protein
T1 construct: hexa-His (cleaved yes); made in house; host or cells: E. coli BL21
Description: (§1) The fluorescence intensities of hAR decreased gradually when the concentrations of quenchers (i.e. inhibitor and cofactors) were increased. The observed fluorescence data were used for calculating the fluorescence quenching (Q% = (F^0 − F)/F^0) where F is the measured fluorescence and F^0 is the fluorescence in the absence of quenchers.
(§2) Fluorescence titration was performed for the binding of NADPH to hAR at a protein concentration of 0.5 μM in 5 mM sodium phosphate buffer (pH 7.0) containing 100 μM DTT. The titration for NADP^+ binding to hAR was conducted at a protein concentration of 0.5 μM in 10 mM Tris-HCl buffer (pH 9.0) containing 100 μM DTT in 1.4 ml quartz cuvette by measuring fluorescence by SpectraMax M2 (Molecular Device, CA). The concentration of protein•NADP^+/NADPH complexes formed were measured by extensive quenching of protein fluorescence by varying the concentrations of NADP^+/NADPH at excitation and emission wavelengths of 295 and 365 nm, respectively following the procedure described by[43][44]. This method was extended for inhibitor (WY 14,643) binding to enzyme•NADPH complex at protein concentration of 0.5 μM in 5 mM sodium phosphate buffer (pH 7.0) containing 100 μM DTT by keeping saturated fixed 60 μM concentration of NADPH and by varying the concentrations of WY 14,643. The binding of inhibitor (WY 14,643) to enzyme•NADP^+ complex was measured at 0.5 μM protein concentration in 10 mM Tris-HCl buffer (pH 9.0) containing 100 μM DTT by keeping saturated fixed 60 μM concentration of NADP^+ and varying the WY 14,643. The concentrations of enzyme•NADP^+/NADPH•inhibitor complex formed were measured by quenching of fluorescence protein•NADP^+/NADPH complexes with excitation and emission wavelengths 295 and 365 nm, respectively.
The methodology described by van de Weert 2010 was followed in the binding constant determination. The fractional saturation (α) of protein by cofactors (NADP^+/NADPH) and by inhibitor (WY 14,643) binding to protein can be expressed in the form of fluorescence as follows;
The binding dissociation constants and stoichiometry for the binding of quenchers (cofactors and inhibitor) to protein were calculated by non-linear fitting to the experimental fluorescence data and results are shown in Table 1.

[2] = target: T1, human Aldose reductase (hAR); set-up: method as in PMID 17194029; details: cited from earlier work
hAR•NADPH = target: T2, hAR•NADPH (Homo sapiens, UniProt P15121); test: Fluorescence titration of inhibitor binding to the hAR•NADPH binary complex; details: 60 μM NADPH, 5 mM sodium phosphate pH 7.0
T2 construct: hexa-His (cleaved yes); made in house; host or cells: E. coli BL21
Description: as §1
as §2, with “This method was extended for inhibitor (WY 14,643) binding to enzyme•NADPH complex at protein concentration of 0.5 μM in 5 mM sodium phosphate buffer (pH 7.0) containing 100 μM DTT by keeping saturated fixed 60 μM concentration of NADPH and by varying the concentrations of WY 14,643.” left out, “The concentrations of enzyme•NADP^+/NADPH•inhibitor complex formed were measured by quenching of fluorescence protein•NADP^+/NADPH complexes with excitation and emission wavelengths 295 and 365 nm, respectively.” left out

hAR•NADP^+ = target: T3, hAR•NADP^+ (Homo sapiens, UniProt P15121); test: Fluorescence titration of inhibitor binding to the hAR•NADP^+ binary complex; details: 60 μM NADP^+, 10 mM Tris-HCl pH 9.0
T3 construct: hexa-His (cleaved yes); made in house; host or cells: E. coli BL21
Description: as §1
as §2, with “This method was extended for inhibitor (WY 14,643) binding to enzyme•NADPH complex at protein concentration of 0.5 μM in 5 mM sodium phosphate buffer (pH 7.0) containing 100 μM DTT by keeping saturated fixed 60 μM concentration of NADPH and by varying the concentrations of WY 14,643.” left out, “The concentrations of enzyme•NADP^+/NADPH•inhibitor complex formed were measured by quenching of fluorescence protein•NADP^+/NADPH complexes with excitation and emission wavelengths 295 and 365 nm, respectively.” left out

rat livers = system: rat livers; set-up: method as in PMID 195342; details: cited from earlier work

Kd ([1]; NADPH binding to apo hAR, 5 mM sodium phosphate pH 7.0, 100 μM DTT, read-out: Kd(E-NADPH), equilibrium dissociation constant): 480 ± 40 nM | stoichiometry coefficient (n), E-NADPH ([1]; NADPH binding to apo hAR, 5 mM sodium phosphate pH 7.0): 1.25 ± 0.1
Compound: NC(=O)C1=CN([C@@H]2O[C@H](COP(=O)(O)OP(=O)(O)OC[C@H]3O[C@@H](n4cnc5c(N)ncnc54)[C@H](OP(=O)(O)O)[C@@H]3O)[C@@H](O)[C@H]2O)C=CC1 [NADPH]

Kd ([1]; NADP^+ binding to apo hAR, 10 mM Tris-HCl pH 9.0, 100 μM DTT, read-out: Kd(E-NADP^+), equilibrium dissociation constant): 210 ± 10 nM | stoichiometry coefficient (n), E-NADP^+ ([1]; NADP^+ binding to apo hAR, 10 mM Tris-HCl pH 9.0): 1.05 ± 0.03 | fold higher affinity of NADP^+ than NADPH for hAR ([1]; fluorescence quenching data, oxidized vs reduced cofactor): 2 fold
Compound: NC(=O)c1ccc[n+]([C@@H]2O[C@H](COP(=O)([O-])OP(=O)(O)OC[C@H]3O[C@@H](n4cnc5c(N)ncnc54)[C@H](OP(=O)(O)O)[C@@H]3O)[C@@H](O)[C@H]2O)c1 [NADP^+]

Kd (hAR•NADPH; 0.5 μM protein): 110 nM | stoichiometry coefficient (n), binding with hAR•NADPH complex (hAR•NADPH): 1.25 ± 0.06 | Kd (hAR•NADP^+; 0.5 μM protein): 104 nM | stoichiometry coefficient (n), binding with hAR•NADP^+ complex (hAR•NADP^+): 1.37 ± 0.05
Compound: Cc1cccc(Nc2cc(Cl)nc(SCC(=O)O)n2)c1C [WY 14,643, [4-Chloro-6-(2,3-xylidino)-2-pyrimidinylthio]acetic Acid]
Kii (intercept inhibition constant) ([2]; forward reaction (reduction of DL-glyceraldehyde)): 1.8 µM | Ki ([2]; forward reaction (reduction of DL-glyceraldehyde), read-out: Kis (the slope inhibition constant)): 1800 nM | mode of inhibition ([2]; oxidation of benzyl alcohol): pure non-competitive | pattern of inhibition ([2]; with respect to the reduction of DL-glyceraldehyde): classical non-competitive | increased capacity in oxidization of palmitoyl-coenzyme A (rat livers): 18 fold
